Test results: ChEMBL document CHEMBL1201862, “PubChem BioAssay data set” (2004)
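96-well plates; 48 h exposure; 5 concentrations. Endpoints by linear interpolation between flanking doses. Not reached: highest tested concentration assigned. At the GI50, growth is halved.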 Calls of active or inactive are those of the source. Cut-off read from the data, not from the text of the source: active = GI50 up to about 1.1 µM and inactive = higher.

Columns and labels:
Assay in all cases: NCI-60 cell line screen, 48 h
[1] = tested on: MDA-MB-231
[2] = tested on: Malme-3M
[3] = tested on: SN12C
[4] = tested on: OVCAR-8
[5] = tested on: U-251
[6] = tested on: SNB-75
[7] = tested on: SK-MEL-5
[8] = tested on: BT-549
[9] = tested on: EKVX
[10] = tested on: RXF 393
[11] = tested on: T47D
[12] = tested on: NCI/ADR-RES
[13] = tested on: CAKI-1
[14] = tested on: MDA-N
[15] = tested on: CCRF-CEM
[16] = tested on: MOLT-4
[17] = tested on: HOP-62
[18] = tested on: SK-MEL-2
[19] = tested on: LOX IMVI
[20] = tested on: SR

Structure (SMILES)	GI50 [1]	GI50 [2]	GI50 [3]	GI50 [4]	GI50 [5]	GI50 [6]	GI50 [7]	GI50 [8]	GI50 [9]	GI50 [10]	GI50 [11]	GI50 [12]	GI50 [13]	GI50 [14]	GI50 [15]	GI50 [16]	GI50 [17]	GI50 [18]	GI50 [19]	GI50 [20]
O=c1cc(/C=C/c2ccc(O)c(O)c2)oc(/C=C/c2ccc(O)c(O)c2)c1	4.44 µM (inactive)	5.06 µM (inactive)	4.29 µM (inactive)	4.4 µM (inactive)	2.74 µM (inactive)	4.41 µM (inactive)	3.19 µM (inactive)	4.8 µM (inactive)	6.53 µM (inactive)	2.72 µM (inactive)	1.98 µM (inactive)	26.1 µM (inactive)	3.37 µM (inactive)	2.24 µM (inactive)	1.24 µM (inactive)	1.83 µM (inactive)	7.53 µM (inactive)	2.65 µM (inactive)	3.61 µM (inactive)	1.07 µM (active)
COC(=O)c1cnn2c1n[n+]([O-])c1ccccc12	> 100 µM (inactive)	> 100 µM (inactive)	> 100 µM (inactive)	> 100 µM (inactive)	> 100 µM (inactive)	> 100 µM (inactive)	26.9 µM (inactive)	> 100 µM (inactive)	> 100 µM (inactive)	> 100 µM (inactive)	> 100 µM (inactive)	> 100 µM (inactive)	> 100 µM (inactive)	> 100 µM (inactive)	> 100 µM (inactive)	> 100 µM (inactive)	> 100 µM (inactive)	> 100 µM (inactive)	> 100 µM (inactive)	> 100 µM (inactive)
Cn1c(=O)c2c(ncn2CCCCOc2ccc3c(c2)[n+]([O-])nc(N)[n+]3[O-])n(C)c1=O	30.5 µM (inactive)	21.1 µM (inactive)	37.4 µM (inactive)	20 µM (inactive)	18.3 µM (inactive)	27.9 µM (inactive)	9.38 µM (inactive)	12.9 µM (inactive)	28.7 µM (inactive)	14.9 µM (inactive)	2.38 µM (inactive)	> 100 µM (inactive)	59.8 µM (inactive)	26.1 µM (inactive)	32.7 µM (inactive)	25.4 µM (inactive)	22.7 µM (inactive)	28.9 µM (inactive)	30.7 µM (inactive)	49.2 µM (inactive)
COc1cccc(NC(=O)CC(=O)NN)c1	> 100 µM (inactive)	> 100 µM (inactive)	> 100 µM (inactive)	> 100 µM (inactive)	> 100 µM (inactive)	> 100 µM (inactive)	> 100 µM (inactive)	> 100 µM (inactive)	> 100 µM (inactive)	> 100 µM (inactive)	> 100 µM (inactive)	> 100 µM (inactive)	> 100 µM (inactive)	> 100 µM (inactive)	> 100 µM (inactive)	> 100 µM (inactive)	> 100 µM (inactive)	> 100 µM (inactive)	> 100 µM (inactive)	> 100 µM (inactive)
COC(=O)[C@H]1ON2O[C@H](OC3CCCC[C@@H]3c3ccccc3)C[C@@H]3CC[C@H]1[C@@]32C (stereo partly drawn)	> 100 µM (inactive)	> 100 µM (inactive)	31.6 µM (inactive)	> 100 µM (inactive)	77.6 µM (inactive)	36.4 µM (inactive)	56.4 µM (inactive)	> 100 µM (inactive)	92.9 µM (inactive)	45.9 µM (inactive)	46.5 µM (inactive)	> 100 µM (inactive)	> 100 µM (inactive)	> 100 µM (inactive)	> 100 µM (inactive)	54.3 µM (inactive)	> 100 µM (inactive)	84.5 µM (inactive)	> 100 µM (inactive)	72.9 µM (inactive)
Clc1cc(OCc2nn3c(Cc4ccccc4)nnc3s2)c(Cl)cc1OCc1nn2c(Cc3ccccc3)nnc2s1	26.4 µM (inactive)	> 100 µM (inactive)	> 100 µM (inactive)	28.6 µM (inactive)	31.6 µM (inactive)	1.32 µM (inactive)	41.8 µM (inactive)	20.8 µM (inactive)	54.1 µM (inactive)	17 µM (inactive)	22.1 µM (inactive)	16 µM (inactive)	> 100 µM (inactive)	79.4 µM (inactive)	12.3 µM (inactive)	3.77 µM (inactive)	33.3 µM (inactive)	> 100 µM (inactive)	> 100 µM (inactive)	0.541 µM (active)
C=C(C)[C@@H]1CC[C@]2(C(=O)O)CC[C@]3(C)[C@H](CC[C@@H]4[C@@]5(C)CC[C@H](O)C(C)(C)[C@@H]5CC[C@]43C)[C@@H]12 [BETULINIC ACID]	3.91 µM (inactive)	7.59 µM (inactive)	10.8 µM (inactive)	4.85 µM (inactive)	5.53 µM (inactive)	8.87 µM (inactive)	4.19 µM (inactive)	2.53 µM (inactive)	16.1 µM (inactive)	2.64 µM (inactive)	7.13 µM (inactive)	7.23 µM (inactive)	11.6 µM (inactive)	16.7 µM (inactive)	5.15 µM (inactive)	4.51 µM (inactive)	8.36 µM (inactive)	12.4 µM (inactive)	11.3 µM (inactive)	5.53 µM (inactive)
C=CC(=O)c1ccc2c(c1)OCCOCCOCCOCCOCCO2	21.3 µM (inactive)	18.5 µM (inactive)	23.8 µM (inactive)	20 µM (inactive)	> 57.5 µM (inactive)	> 49.3 µM (inactive)	58.7 µM (inactive)	19.9 µM (inactive)	24 µM (inactive)	17.2 µM (inactive)	29.3 µM (inactive)	25.3 µM (inactive)	34.4 µM (inactive)	39.2 µM (inactive)	> 27.5 µM (inactive)	38.1 µM (inactive)	> 100 µM (inactive)	30.5 µM (inactive)	17.7 µM (inactive)	> 100 µM (inactive)
CC(C)(C)c1cc(C(=O)/C=C/c2ccc3c(c2)OCO3)cc(C(C)(C)C)c1O	8.11 µM (inactive)	32.4 µM (inactive)	10.1 µM (inactive)	13.6 µM (inactive)	6.68 µM (inactive)	3.2 µM (inactive)	4.2 µM (inactive)	6.3 µM (inactive)	21.9 µM (inactive)	1.86 µM (inactive)	2.55 µM (inactive)	4.29 µM (inactive)	9.29 µM (inactive)	1.98 µM (inactive)	3.48 µM (inactive)	5.6 µM (inactive)	19.4 µM (inactive)	3.26 µM (inactive)	8.32 µM (inactive)	2.18 µM (inactive)
CC(=O)OCC1OC(SC2=NC(=O)/C(=C/c3ccccc3)S2)C(OC(C)=O)C(OC(C)=O)C1OC(C)=O (stereo not drawn)	23.3 µM (inactive)	23.7 µM (inactive)	49.8 µM (inactive)	14.6 µM (inactive)	30.9 µM (inactive)	18.2 µM (inactive)	18.8 µM (inactive)	28.4 µM (inactive)	21.2 µM (inactive)	26 µM (inactive)	24.2 µM (inactive)	30.4 µM (inactive)	3.78 µM (inactive)	26.8 µM (inactive)	28.4 µM (inactive)	21.8 µM (inactive)	38.5 µM (inactive)	80.4 µM (inactive)	22.4 µM (inactive)	10.9 µM (inactive)
CO[C@@H]1C=C[C@@]23c4cc5c(cc4C(O)N(CC2O)C3C1)OCO5 (stereo partly drawn)	3.87 µM (inactive)	6.97 µM (inactive)	4.15 µM (inactive)	3.63 µM (inactive)	3.61 µM (inactive)	2.82 µM (inactive)	2.01 µM (inactive)	2.98 µM (inactive)	3.86 µM (inactive)	5.62 µM (inactive)	3.35 µM (inactive)	13.9 µM (inactive)	3.58 µM (inactive)	3.2 µM (inactive)	1.79 µM (inactive)	2.82 µM (inactive)	4.43 µM (inactive)	2.99 µM (inactive)	3.52 µM (inactive)	4 µM (inactive)
Cc1[nH]c(-c2ccccc2)c2nc(N(C)C)oc(=O)c12	> 100 µM (inactive)	> 100 µM (inactive)	> 100 µM (inactive)	> 100 µM (inactive)	> 100 µM (inactive)	> 100 µM (inactive)	> 100 µM (inactive)	> 100 µM (inactive)	> 100 µM (inactive)	> 100 µM (inactive)	> 100 µM (inactive)	> 100 µM (inactive)	0.212 µM (active)	> 100 µM (inactive)	> 100 µM (inactive)	> 100 µM (inactive)	> 100 µM (inactive)	> 100 µM (inactive)	> 100 µM (inactive)	> 100 µM (inactive)
CN1CN(c2ccccc2)C2(CCN(CC(C)(c3ccc(F)cc3)C3OCCCO3)CC2)C1=O (stereo not drawn)	24.2 µM (inactive)	15.6 µM (inactive)	18.1 µM (inactive)	19.4 µM (inactive)	12.8 µM (inactive)	18.7 µM (inactive)	15.7 µM (inactive)	5.31 µM (inactive)	16.7 µM (inactive)	19.7 µM (inactive)	17.7 µM (inactive)	12.9 µM (inactive)	19.7 µM (inactive)	17.3 µM (inactive)	13 µM (inactive)	9.71 µM (inactive)	16.6 µM (inactive)		17.5 µM (inactive)	10 µM (inactive)
Clc1cccc(/C=N/C23CC4CC(CC(C4)C2)C3)c1Cl	> 10 µM (inactive)	> 10 µM (inactive)	> 10 µM (inactive)	> 10 µM (inactive)	> 10 µM (inactive)	5.36 µM (inactive)	> 10 µM (inactive)	> 10 µM (inactive)	> 10 µM (inactive)	> 10 µM (inactive)	> 10 µM (inactive)	> 10 µM (inactive)	> 10 µM (inactive)	> 10 µM (inactive)	> 10 µM (inactive)		> 10 µM (inactive)	> 10 µM (inactive)	> 10 µM (inactive)	0.637 µM (active)
